The test system of the assay is THP-1 viability, CellTiter-Glo luminescence, 72 h. Kind of assay: PubChem AID 2252.

The term EC50 denotes the concentration that produces a half-maximal response.

Where only a bound is given, the exact number is not on record here.

`Clc1ccc(CN2CCc3c([nH]c4ccccc34)C2)cc1Cl`: the EC50 is 8.16 µM.

With `CCc1cccc2c1Sc1ccccc1CC2N1CCNCC1` (centres undefined), the EC50 is 9.72 µM. For the compound `Cc1cc(C)n(-c2nc(SCCN(C)C)c3c4c(sc3n2)CCCC4)n1`, the EC50 is 3.25 µM.

In the case of `O=S1(=O)CC=C(CSc2nc3ccccc3[nH]2)C1`, the EC50 is less than 0.1 µM. Take `CCN1CCN(Cc2ccc(NC(=O)c3cc(NC(=O)c4cc(-c5ccc(OC)cc5)n[nH]4)cc(OC)c3)cc2C(F)(F)F)CC1`: the EC50 is 3.92 µM.

`O=C(NC(=S)NNC(=O)c1cccs1)c1ccc(Br)o1`: the concentration giving a half-maximal response (EC50) is 27.5 µM. As for `CC(C)NC(=O)Nc1ccc(Br)cc1Cl`, the EC50 is less than 0.1 µM.

For `Oc1c(C(Nc2ccccn2)c2cccnc2)cc(Cl)c2cccnc12` (centres undefined), the half-maximal effective concentration (EC50) was 6.1 µM.

For `CCN1CCCC1CNC(=O)C1CCN(Cc2nc(-c3cccc(Br)c3)oc2C)CC1` (centres undefined), the EC50 is 12.4 µM. On to `COc1ccc(CNCCc2cccc(F)c2)c2ccccc12`, for which the EC50 was 12.9 µM.

For the compound `COc1ccc(Nc2c3c(nc4ccccc24)CCC3)cc1`, the EC50 is 3.42 µM. Take `O=C1C=CC(=O)N1CCCCCCN1C(=O)C=CC1=O`: the EC50 was 3.29 µM. The figure for `Cc1ccc(CNCCC2=CCCCC2)cc1` is 26.7 µM; for `COc1c(N2CCN(C(=S)NCc3ccccc3)C(C)C2)c(F)cc2c(=O)c(C(=O)O)cn(C3CC3)c12` (centres undefined) it is 17.9 µM; for `CC1CCC(C(C)C)C(OC(=O)C[n+]2cc(-c3ccc(Cl)cc3)n3c2CCC3)C1` (centres undefined) it is 16.5 µM.

As to `Cc1nc(NC2=NCN(CCCN3CCOCC3)CN2)nc2c(C)cccc12`, the EC50 was 13.9 µM.

`CN1CCN(C(c2ccc(C(F)(F)F)cc2)c2ccc3cccnc3c2O)CC1` (centres undefined): the EC50 was 1.36 µM. For `CCCCn1c(NS(=O)(=O)c2ccccc2)c(S(=O)(=O)c2ccc(C)cc2)c2nc3ccccc3nc21`, the EC50 was 12 µM. As to `OC(CNCc1ccco1)Cn1c2ccc(Br)cc2c2cc(Br)ccc21` (centres undefined), the EC50 is 9.67 µM. Consider `Fc1ccc(NC(=S)Nc2cc(-c3ccccc3)[nH]n2)cc1Cl`, for which the EC50 was 41.9 µM. With `CC(C)N1CCc2c(sc(NC(=O)c3ccc(S(=O)(=O)N4CCc5ccccc54)cc3)c2C(N)=O)C1`, the EC50 is 8.45 µM. On to `O=C(O)CC/C(=C\c1ccccc1[N+](=O)[O-])c1nc2ccccc2s1`, for which the EC50 is less than 0.1 µM.

On to `CC1=NN(c2nc3ccccc3[nH]2)C(=O)C1Cc1ccccc1` (centres undefined), for which the EC50 was 1.85 µM. On to `CC(C)[C@H](NC(=O)c1ccccc1Cl)C(=O)Nc1nc(-c2ccccn2)cs1`, for which the EC50 is 6.18 µM. `O=C(CSc1ccccn1)N/N=C/c1cc([N+](=O)[O-])ccc1O`: the EC50 is 21.5 µM.

Regarding `Cc1nn(-c2ccccc2)c(C)c1/C=N/n1c(-c2ccc(C(C)(C)C)cc2)n[nH]c1=S`, the EC50 was 32.1 µM.

With `Cn1c(N/N=C/c2c[nH]c3ccccc23)nc2ccccc21`, the EC50 was 8.11 µM.

Take `O=C(N/N=C/c1ccc([N+](=O)[O-])s1)C(O)c1ccccc1` (centres undefined): the EC50 is 12.9 µM. The figure for `O=[N+]([O-])c1cc(/C=N/Nc2nc3ccccc3[nH]2)c(O)cc1O` is 1.7 µM; for `O=C(Cc1ccccc1)N/N=C/c1cc(Br)cc(Cl)c1O` it is 3.7 µM; for `Cc1c(CCN)ccc2c1[nH]c1ccccc12` it is 22.3 µM. Take `Fc1ccc(Nc2nc(NCc3ccco3)c3ccccc3n2)cc1`: the EC50 is 5.9 µM. The figure for `COc1ccccc1Nc1nc(Cl)c(C=O)s1` is 21.1 µM. `Nc1nc(Nc2ccccc2)nc2ccccc12`: the EC50 was 3.32 µM. `Cc1cccc(OCC(O)Cn2c(=N)n(CCN3CCCCC3)c3ccccc32)c1` (centres undefined): the EC50 is 16.1 µM. For `C#CCOCCOCCOCCNc1nc(N2CCN(C(=O)CCCCCCCCCCNC(=O)Cn3cc(C[C@@H](C)O)nn3)CC2)nc(N2CCN(C(=O)CCCCCCCCCCNC(=O)[C@H](CCCN=C(N)N)n3cc(C[C@@H](C)CC)nn3)CC2)n1`, the EC50 was 14.3 µM. The figure for `CC[C@@H](C)[C@H](CNC)NC[C@@H](Cc1cccc2ccccc12)NCCc1cccc(C(F)(F)F)c1` is 5.86 µM; for `Cc1ccc2c(c1)sc(-c1ccc(N(C)C)cc1)[n+]2C` it is 4.02 µM; for `O=C(Nc1cccc(NC(=O)c2ccccc2Cl)c1)c1ccc([N+](=O)[O-])o1` it is 2.11 µM. Under `COc1ccc(NC2=NC3(CCCCC3)N=C(N)N2)cc1` stands 27 µM. For `C#CCOCCOCCOCCNc1nc(N2CCN(C(=O)CCCCCCCCCCNC(=O)[C@H](CCCCN)n3cc(C[C@@H](C)CC)nn3)CC2)nc(N2CCN(C(=O)CCCCCCCCCCNC(=O)[C@H](CCCN=C(N)N)n3cc(C[C@@H](C)CC)nn3)CC2)n1`, the EC50 was 5.23 µM. Under `NC1=NC[C@H](c2ccccc2)N1CCc1cc(C(F)(F)F)cc(C(F)(F)F)c1` stands 3.81 µM. Under `Nc1nc2ccccc2n1CCOc1ccccc1Cl` stands 16.6 µM; under `Cc1ccc(C(c2cc(Cl)c3cccnc3c2O)N2CCN(C)CC2)cc1` (centres undefined), 4.95 µM; under `Oc1ccccc1-c1cc(C(F)(F)C(F)F)[nH]n1`, 46.4 µM. As for `O=C(Oc1c(Cl)cc(Cl)c2cccnc12)c1cccc([N+](=O)[O-])c1`, the EC50 was 14.6 µM. With `C#CCOCCOCCOCCNc1nc(N2CCN(C(=O)CCCCCCCCCCNC(=O)Cn3cc(CCCCCN)nn3)CC2)nc(N2CCN(C(=O)CCCCCCCCCCNC(=O)[C@H]([C@@H](C)CC)n3cc(CCCCN=C(N)N)nn3)CC2)n1`, the EC50 is 11 µM. Under `Nc1nonc1C(=O)NCCN=Cc1cc(Cc2ccccc2)cc(Br)c1O` stands 28 µM. Regarding `O=C(CN1CC(c2ccccc2)CC1=O)N/N=C/c1cc(Br)ccc1O` (centres undefined), the EC50 was 3.85 µM. For `O=C1c2ccc3c4c(ccc(c24)C(=O)N1c1cccc(O)c1)C(=O)N(c1cccc(O)c1)C3=O`, the EC50 was 2.74 µM. Regarding `C(=N\Nc1nc2ccccc2[nH]1)/c1ccc2ncccc2c1`, the half-maximal effective concentration (EC50) was 15.6 µM. Turning to `Oc1ccccc1N=Cc1c(O)ccc2oc3c(c12)CCCC3`, the 50% effective concentration (EC50) was 45.8 µM. As to `c1ccc2c(c1)CCc1ccccc1C2=C1CCNCC1`, the EC50 is 25.2 µM.

As to `COc1ccc(Nc2c3ccccc3nc3ccccc23)cc1`, the EC50 was 8.99 µM. Under `CCN(CC)CCSc1nnc2c3ccccc3n(Cc3ccccc3)c2n1` stands 26.3 µM. As to `Cc1ccc(C(=O)NCC(=O)NCCc2ccc(S(N)(=O)=O)cc2)s1`, the EC50 is less than 0.1 µM.

For the compound `CCCCCCCCC1=NCCc2c1[nH]c1ccccc21`, the half-maximal effective concentration (EC50) was 15 µM.

Consider `CN(C)CCCN1c2ccccc2CCc2ccc(Cl)cc21`, for which the EC50 is 18.4 µM. Under `NCC/C=C1/c2ccccc2CSc2ccccc21` stands 25.9 µM; under `CCn1cc(C(=O)NCCc2ccccc2)c(=O)c2cc(F)c(N3CCN(C)CC3)cc21`, 35.4 µM. `Cc1ccc(Nc2nc(NCCO)c3ccccc3n2)cc1C`: the EC50 is 3.06 µM. For the compound `COc1ccc(Nc2cc(C)nc(NCc3ccccc3)n2)cc1`, the EC50 was 4.79 µM. With `O=Cc1c(Cl)nc2ccccn2c1=O`, the EC50 was 21.7 µM. As to `Cc1nonc1C(=O)N/N=C/c1ccc([N+](=O)[O-])o1`, the EC50 is 40.7 µM. For the compound `Cc1nc(N=Nc2ccc(O)cc2)n[nH]1`, the EC50 was 28.2 µM. Consider `C=CCN(c1ccccc1)S(=O)(=O)c1cccc2cccnc12`, for which the EC50 was 49.4 µM.

For the compound `c1ccc(Nc2nc(NCc3ccco3)c3ccccc3n2)cc1`, the EC50 is 4.95 µM.

For the compound `c1ccc(CNc2nc(N3CCN(Cc4ccccc4)CC3)nc3ccccc23)cc1`, the EC50 is 8.41 µM. Take `Cc1ccc(Nc2cc(C)nn2-c2nc(C)cc(=O)[nH]2)cc1`: the EC50 was 0.65 µM.

Source of the values: PubChem BioAssay AID2252 (Southern Research Specialized Biocontainment Screening …, 2010).
